Results reported in patent US10266497B2 (ABIDE THERAPEUTICS, INC., priority 2017, dated 2019).

What was measured:
[1] = biological target: T1, MAGL (Homo sapiens, UniProt Q99685); test: In vitro competitive activity-based protein profiling, MAGL, human; details: read-out: MAGL % inh. 1 μM (human)
T1 sequence (Q99685 1-303): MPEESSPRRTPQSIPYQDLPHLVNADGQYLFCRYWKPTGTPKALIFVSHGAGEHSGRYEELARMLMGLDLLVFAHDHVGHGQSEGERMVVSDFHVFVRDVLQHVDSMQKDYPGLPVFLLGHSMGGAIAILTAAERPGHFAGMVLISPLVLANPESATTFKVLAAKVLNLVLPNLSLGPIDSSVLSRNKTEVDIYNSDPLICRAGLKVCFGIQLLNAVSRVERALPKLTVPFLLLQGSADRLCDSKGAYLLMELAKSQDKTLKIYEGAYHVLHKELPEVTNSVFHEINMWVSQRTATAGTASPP

[2] = biological target: T2, MAGL (Mus musculus, UniProt O35678); test: In vitro competitive activity-based protein profiling, MAGL, mouse; details: read-out: MAGL % inh. 1 μM (mouse)
T2 sequence (O35678 1-303): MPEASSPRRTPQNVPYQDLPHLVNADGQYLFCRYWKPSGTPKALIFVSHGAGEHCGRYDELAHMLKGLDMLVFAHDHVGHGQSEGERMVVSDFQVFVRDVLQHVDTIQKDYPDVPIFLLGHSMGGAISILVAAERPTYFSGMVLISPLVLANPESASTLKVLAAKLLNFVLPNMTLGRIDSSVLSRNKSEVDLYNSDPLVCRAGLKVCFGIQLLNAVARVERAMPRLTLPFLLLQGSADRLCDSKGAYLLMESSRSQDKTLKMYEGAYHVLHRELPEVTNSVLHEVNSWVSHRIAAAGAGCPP

SMILES | inhibition at 1 µM [1] [%] | inhibition at 1 µM [2] [%]
Cc1c(CO[C@H]2C[C@@H]3CN(C(=O)n4cc(Cl)c(C(=O)O)n4)C[C@@H]3C2)cccc1C(F)(F)F [Example 341, 4-chloro-1-(trans-5-((2-methyl-3-(trifluoromethyl)benzyl)oxy)octa-hydrocyclopenta[c]pyrrole-2-carbonyl)-1H-pyrazole-3-carboxylic acid] | > 75 | > 75
Cc1ccc(COC2CCN(C(=O)n3ccc(C(=O)O)n3)CC2)cc1C(F)(F)F [Example 236, 1-(4-((4-methyl-3-(trifluoromethyl)benzyl)oxy)piper-idine-1-carbonyl)-1H-pyrazole-3-carboxylic acid] | > 75 | > 75
O=C(O)c1ccn(C(=O)N2CCC(OCc3cc(Cl)ccc3C(F)(F)F)CC2)n1 [Example 277, 1-(4-((5-chloro-2-(trifluoromethyl)benzyl)oxy)piper-idine-1-carbonyl)-1H-pyrazole-3-carboxylic acid] | > 75 | > 75
O=C(O)c1ccn(C(=O)N2CCC3(CCN(Cc4cccc(Cl)c4C(F)(F)F)C3)CC2)n1 [Example 340, 1-(2-(3-chloro-2-(trifluoromethyl)benzyl)-2,8-diazaspiro[4.5]decane-8-carbonyl)-1H-pyrazole-3-carboxylic acid] | > 75 | > 75
C[C@H]1C[C@@H](N(C)Cc2cccc(C(F)(F)F)c2)CCN1C(=O)n1ccc(C(N)=O)n1 [Example 24, 1-((2S,4S)-2-Methyl-4-(methyl(3-(trifluoromethyl)benzyl)amino)piperidine-1-carbonyl)-1H-pyrazole-3-carboxamide] | > 75 | > 75
COc1ccc(Cl)cc1CN1CCC2(CCN(C(=O)n3ccc(C(=O)O)n3)CC2)C1 [Example 282, 1-(2-(5-chloro-2-methoxybenzyl)-2,8-diazaspiro[4.5]decane-8-carbonyl)-1H-pyrazole-3-carboxylic acid] | 50 to 75 | 0 to 25
O=C(O)c1ccn(C(=O)N2CCN(Cc3ccc(F)c(Oc4ccccc4)c3)CC2)n1 [Example 263, 1-(4-(4-fluoro-3-phenoxybenzyl)pi-perazine-1-carbonyl)-1H-pyrazole-3-carboxylic acid] | > 75 | > 75
O=C(O)c1ccn(C(=O)N2CCC3(CC2)CN(Cc2cc(Cl)ccc2C(F)(F)F)C3)n1 [Example 313, 1-(2-(5-chloro-2-(trifluoromethyl)benzyl)-2,7-diazaspiro[3.5]non-ane-7-carbonyl)-1H-pyrazole-3-carboxylic acid] | > 75 | > 75
O=C(O)c1ccn(C(=O)N2CCN(Cc3cc(F)cc(Oc4ccccc4Cl)c3)CC2)n1 [Example 319, 1-(4-(3-(2-chlorophenoxy)-5-fluorobenzyl)piper-azine-1-carbonyl)-1H-pyrazole-3-carboxylic acid] | > 75 | > 75
O=C(O)c1ccn(C(=O)N2CCN(Cc3cccc(Oc4ncccc4F)c3)CC2)n1 [Example 264, 1-(4-(3-((3-fluoropyridin-2-yl)oxy)benzyl)piper-azine-1-carbonyl)-1H-pyrazole-3-carboxylic acid] | > 75 | > 75
Cc1ccc(C)c(CN2CCC3(CCN(C(=O)n4ccc(C(=O)O)n4)CC3)C2)c1 [Example 223, 1-(2-(2,5-dimethylbenzyl)-2,8-diazaspiro[4.5]decane-8-carbonyl)-1H-pyrazole-3-carboxylic acid] | > 75 | 0 to 25
Cc1cc(O[C@H]2C[C@@H]3CN(C(=O)n4ccc(C(=O)O)n4)C[C@@H]3C2)ccc1C(F)(F)F [Example 254, 1-(trans-5-(3-methyl-4-(trifluoromethyl)phenoxy)octahydro-cyclopenta[c]pyrrole-2-carbonyl)-1H-pyrazole-3-carboxylic acid] | > 75 | > 75
Cc1cn(C(=O)N2C[C@H]3C[C@H](Oc4cccc(-c5ccccc5)c4)C[C@H]3C2)nc1C(=O)O [Example 280, 1-(trans-5-([1,1′-biphenyl]-3-yloxy)octahydro-cyclopenta[c]pyrrole-2-carbonyl)-4-methyl-1H-pyrazole-3-carboxylic acid] | > 75 | > 75
O=C(O)c1ccn(C(=O)N2C[C@H]3C[C@H](Oc4cc(F)cc(Cl)c4)C[C@H]3C2)n1 [Example 222, 1-(trans-5-(3-chloro-5-fluorophenoxy)octa-hydrocyclopenta[c]pyrrole-2-carbonyl)-1H-pyrazole-3-carboxylic acid] | > 75 | > 75
CCOc1cc(CN2CCC3(CCN(C(=O)n4ccc(C(=O)O)n4)CC3)C2)ccc1Cl [Example 21, 1-(2-(4-chloro-3-ethoxybenzyl)-2,8-diazaspiro[4.5]decane-8-carbonyl)-1H-pyrazole-3-carboxylic acid] | 25 to 50 | 25 to 50
O=C(O)c1ccn(C(=O)N2CCC3(CCN(Cc4cccc(-c5nccs5)c4)C3)CC2)n1 [Example 305, 1-(2-(3-(thiazol-2-yl)benzyl)-2,8-diazaspiro[4.5]decane-8-carbonyl)-1H-pyrazole-3-carboxylic acid] | 50 to 75 | 0 to 25
O=C(O)c1ccn(C(=O)N2CCN(Cc3cc(F)cc(Oc4cccc(Cl)c4)c3)CC2)n1 [Example 321, 1-(4-(3-(3-chlorophenoxy)-5-fluorobenzyl)piper-azine-1-carbonyl)-1H-pyrazole-3-carboxylic acid] | > 75 | > 75

Results, then the compound that gave them:

inhibition at 1 µM [1] [%] | inhibition at 1 µM [2] [%] | SMILES
> 75 | > 75 | O=C(O)c1nn(C(=O)N2CCN(Cc3cccc(Oc4cc(C(F)(F)F)ccn4)c3)CC2)cc1C(F)(F)F [Example 414, 4-(trifluoromethyl)-1-(4-(3-((4-(trifluoromethyl)pyridin-2-yl)oxy)benzyl)piper-azine-1-carbonyl)-1H-pyrazole-3-carboxylic acid]
> 75 | > 75 | Cc1cn(C(=O)N2CCC(C)(N(C)Cc3ccc(C(F)(F)F)cc3N3CCCC3)CC2)nc1C(=O)O [Example 398]
> 75 | > 75 | C[C@H]1CN(Cc2cccc(Oc3cc(C(F)(F)F)ccn3)c2)CCN1C(=O)n1ccc(C(=O)O)n1 [Example 373, (S)-1-(2-methyl-4-(3-((4-(trifluoromethyl)pyridin-2-yl)oxy)benzyl)piper-azine-1-carbonyl)-1H-pyrazole-3-carboxylic acid]
25 to 50 | 0 to 25 | O=C(O)c1ccn(C(=O)N2CCC3(CCN(Cc4ccc(Cl)c(N5CC6COCC6C5)c4)C3)CC2)n1 (stereo not drawn) [Example 401, 1-(2-(4-chloro-3-(tetrahydro-1H-furo[3,4-c]pyrrol-5(3H)-yl)benzyl)-2,8-diazaspiro[4.5]decane-8-carbonyl)-1H-pyrazole-3-carboxylic acid]
> 75 | > 75 | O=C(O)c1ccn(C(=O)N2CCC3(CCCN3Cc3ccc(C(F)(F)F)cc3N3CC4COCC4C3)CC2)n1 (stereo not drawn) [Example 415, 1-(1-(2-(tetrahydro-1H-furo[3,4-c]pyrrol-5(3H)-yl)-4-(trifluoromethyl)benzyl)-1,8-diazaspiro[4.5]decane-8-carbonyl)-1H-pyrazole-3-carboxylic acid]
0 to 25 | 0 to 25 | NC(=O)c1ccn(C(=O)N2CCC3(CCN(Cc4cc5ccc(C(F)(F)F)cc5s4)C3)CC2)n1 [Example 377, 1-(2-((6-(trifluoromethyl)benzo[b]thiophen-2-yl)methyl)-2,8-diazaspiro[4.5]decane-8-carbonyl)-1H-pyrazole-3-carboxamide]
> 75 | > 75 | O=C(O)c1nn(C(=O)N2CCN(Cc3ccc(N4CCCC4)cc3C(F)(F)F)CC2)cc1Cl [Example 368, 4-chloro-1-(4-(4-(pyrrolidin-1-yl)-2-(trifluoromethyl)benzyl)piperazine-1-carbonyl)-1H-pyrazole-3-carboxylic acid]
> 75 | > 75 | O=C(O)c1ccn(C(=O)N2CCN(Cc3cccc(Oc4cccc(C(F)(F)F)n4)c3)CC2)n1 [Example 353, 1-(4-(3-((6-(trifluoromethyl)pyridin-2-yl)oxy)benzyl)piper-azine-1-carbonyl)-1H-pyrazole-3-carboxylic acid]
> 75 | > 75 | O=C(O)c1nn(C(=O)N2CC3CN(Cc4cc(Cl)cc(C(F)(F)F)c4)CC3C2)cc1Cl (stereo not drawn) [Example 357, 4-chloro-1-(5-(3-chloro-5-(trifluoromethyl)benzyl)octahydro-pyrrolo[3,4-c]pyrrole-2-carbonyl)-1H-pyrazole-3-carboxylic acid]
> 75 | > 75 | O=C(O)c1ccn(C(=O)N2CCN(Cc3cccc(Oc4ccc(C(F)(F)F)nc4)c3)CC2)n1 [Example 354, 1-(4-(3-((6-(trifluoromethyl)pyridin-3-yl)oxy)benzyl)piper-azine-1-carbonyl)-1H-pyrazole-3-carboxylic acid]
